In ChEMBL document CHEMBL1201862, “PubChem BioAssay data set” (2004):
The source made the active and inactive calls.

What was measured:
[1] = target: T1, Trace amine-associated receptor 1 (Homo sapiens, UniProt Q96RJ0); test: Counterscreen for agonists of the human trace amine associated receptor 1 (hTAAR1): Fluorescence-based cell-based high throughput dose response assay to identify hTAAR1 agonist that also desensitize TAAR1 receptor response.; format: functional
T1 sequence (Q96RJ0 whole entry): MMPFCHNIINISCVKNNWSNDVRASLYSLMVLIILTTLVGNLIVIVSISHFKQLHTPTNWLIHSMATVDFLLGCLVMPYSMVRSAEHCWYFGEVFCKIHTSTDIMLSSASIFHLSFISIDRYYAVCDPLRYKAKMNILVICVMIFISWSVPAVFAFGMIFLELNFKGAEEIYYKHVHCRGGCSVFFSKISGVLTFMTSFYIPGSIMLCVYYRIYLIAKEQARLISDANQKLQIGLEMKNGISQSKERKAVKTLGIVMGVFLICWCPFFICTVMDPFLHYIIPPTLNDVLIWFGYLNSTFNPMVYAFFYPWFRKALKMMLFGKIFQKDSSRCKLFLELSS

cells [2] = format: functional, cell-based
[3] = target: T1, Trace amine-associated receptor 1; test: Fluorescence-based cell-based high throughput dose response assay to identify agonists of the human trace amine associated receptor 1 (TAAR1).; format: functional
cells [4] = format: functional, cell-based; remark: listed apart in the source
Major prion protein = Major prion protein (Homo sapiens, UniProt P04156); format: functional, cell-based
cells [5] = test: cells
[6] = off-target signal loss in HeLa-CEM21 co-culture – HeLa F-luc CTL cells, cherry-picked, counter-screen for HIV-1 Env fusion inhibitor project, dose response (AID 652040); format: functional, cell-based;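 note: potency for signal decrease marking cytotoxic or nonspecific inhibition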
[7] = CEM21 lymphoblast cell cytotoxicity, dose response, cytotoxicity control for viral fusion inhibitor project, CellTiter-Glo luminescence, cherry-picked (AID 652042); format: functional, cell-based;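 note: potency for signal decrease meaning cytotoxicity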
[8] = ZM109 Env clade C HIV-1 fusion inhibitors, dose response, HeLa effector, CEM target cells, luciferase, cherry-pick (AID 652058); format: functional, cell-based
[9] = inhibitors of clade B AD8 Env fusion, dose response, cell-based, cherry-pick (AID 652062); format: functional;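 note: luciferase signal from cell-cell fusion driven by HIV-1 clade B AD8 Env; potency is for inhibitors of fusion seen as a drop in luminescence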
[10] = target: T2, Oxysterols receptor LXR-beta (Homo sapiens, UniProt P55055); test: LXR agonists, Gal4 luciferase reporter, dose response, counter-screen for ssDAF-12 agonist project, cell-based, luminescence, HEK293, S. stercoralis campaign (AID 720737); format: functional; conditions: read-out: IC50 (the source's name)
T2 sequence (P55055 whole entry): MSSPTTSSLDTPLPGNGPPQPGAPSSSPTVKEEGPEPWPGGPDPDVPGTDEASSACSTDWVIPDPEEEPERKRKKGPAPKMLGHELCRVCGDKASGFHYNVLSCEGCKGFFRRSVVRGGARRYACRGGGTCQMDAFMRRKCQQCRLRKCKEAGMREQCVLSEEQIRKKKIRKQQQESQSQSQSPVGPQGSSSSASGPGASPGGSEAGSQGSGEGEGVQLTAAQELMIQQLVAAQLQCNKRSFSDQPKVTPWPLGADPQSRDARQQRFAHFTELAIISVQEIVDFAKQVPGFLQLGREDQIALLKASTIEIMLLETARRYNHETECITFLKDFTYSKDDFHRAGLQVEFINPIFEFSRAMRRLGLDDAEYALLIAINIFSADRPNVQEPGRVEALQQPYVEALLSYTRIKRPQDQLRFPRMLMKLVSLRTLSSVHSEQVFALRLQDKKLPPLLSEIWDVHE

[11] = target: T3, Serine/threonine-protein phosphatase (Candida dubliniensis (strain CD36 / CBS 7987 / NCPF 3949 / NRRLY-17841) (Yeast), UniProt B9W6M3); test: calcineurin pathway inhibitors in yeast reporter, dose response, S. cerevisiae, CDRE-lacZ, luminescence, secondary (AID 2388); format: functional, cell-based;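 note: yeast reporter cells carrying a calcineurin-responsive lacZ construct stimulated with calcium chloride; luminescent beta-galactosidase reporter signal in whole cells rather than isolated phosphatase activity; potency for inhibition where a drop in reporter signal means calcineurin blockade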
T3 sequence (B9W6M3 whole entry): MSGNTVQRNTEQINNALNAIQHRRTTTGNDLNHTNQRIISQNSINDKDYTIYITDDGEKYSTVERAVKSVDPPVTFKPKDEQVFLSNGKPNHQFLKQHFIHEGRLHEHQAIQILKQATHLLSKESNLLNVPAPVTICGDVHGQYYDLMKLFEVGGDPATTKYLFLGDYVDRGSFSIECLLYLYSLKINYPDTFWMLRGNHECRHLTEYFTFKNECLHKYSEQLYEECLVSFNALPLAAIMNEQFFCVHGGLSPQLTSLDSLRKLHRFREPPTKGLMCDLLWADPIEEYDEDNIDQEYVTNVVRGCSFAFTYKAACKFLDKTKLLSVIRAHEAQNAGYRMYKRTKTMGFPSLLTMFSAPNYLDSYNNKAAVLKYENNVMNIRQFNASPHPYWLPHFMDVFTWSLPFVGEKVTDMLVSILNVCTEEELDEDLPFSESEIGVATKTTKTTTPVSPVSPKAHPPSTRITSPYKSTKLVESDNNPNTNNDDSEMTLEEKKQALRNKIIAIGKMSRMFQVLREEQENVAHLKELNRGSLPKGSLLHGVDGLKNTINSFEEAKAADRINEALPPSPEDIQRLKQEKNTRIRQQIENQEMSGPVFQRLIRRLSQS

[12] = NIH-3T3 fibroblast cytotoxicity, dose response, cytotoxicity control, cell-based, fluorescence, Alamar Blue, secondary assay (AID 2327); format: functional;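 note: NIH-3T3 mouse fibroblasts cultured with fluconazole at 8 µg/mL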
[13] = C. albicans growth with fluconazole, confirmation, fluorescence, retest (AID 2467); format: functional, cell-based
[14] = Luminescence-based cell-based high throughput dose response assay to identify activators of the DAF-12 from the parasite S. stercoralis (ssDAF-12).; format: functional
[15] = target: ATP-dependent molecular chaperone HSP82 (Candida albicans (strain WO-1) (Yeast), UniProt C4YTQ8); test: loss of DOC-induced GRE-beta-galactosidase reporter signal, dose response, Hsp90 inhibitor project, S. cerevisiae, luminescence (AID 2400); format: functional, cell-based;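 note: beta-galactosidase luminescence from glucocorticoid response element reporter as proxy for Hsp90 function; inhibitor potency where signal loss means Hsp90 inhibition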
[16] = target: 1-phosphatidylinositol 4,5-bisphosphate phosphodiesterase beta-3 (Homo sapiens, UniProt Q01970); test: Fluorescence-based biochemical high throughput dose response assay to identify inhibitors of phospholipase C isozymes (PLC-B3).
[17] = target: 1-phosphatidylinositol 4,5-bisphosphate phosphodiesterase gamma-1 (Homo sapiens, UniProt P19174); test: Counterscreen for inhibitors of phospholipase C isozymes (PLC-B3): Fluorescence-based biochemical high throughput dose response assay to identify inhibitors of phospholipase C isozymes (PLC-gamma1).
fMet-Leu-Phe receptor = fMet-Leu-Phe receptor (Homo sapiens, UniProt P21462); test: FPR ligands, dose response (AID 519); format: functional
[18] = human group III sPLA2 inhibitors, dose response, biochemical, QFRET, IC50 (AID 743457);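 note: green fluorescence rise as the enzyme cleaves BODIPY PC-A2 in liposomes; potency for inhibition of the enzyme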

c1ccc(CC/N=C2\CCCc3c2[nH]c2ccccc32)cc1
IC50 [1]: 0.341 µM (active) | EC50 (cells [2]): > 29.9 µM (inactive) | EC50 [3]: 0.106 µM (active) | IC50 (cells [4]): > 29.9 µM (inactive)

Cc1ccc(NS(=O)(=O)c2cc(C(=O)NCc3ccccn3)ccc2Cl)cc1C
IC50 (Major prion protein): 13 µM (inactive) | IC50 (cells [5]): > 138 µM (inactive)

N=c1nc2n(cc1F)C1OC(CO)C(O)C1O2 (stereo unspecified)
AC50 [6]: < 0.26 µM (active) | AC50 [7]: 17.9 µM (active) | AC50 [8]: < 0.26 µM (active) | AC50 [9]: 0.699 µM (active)

Cc1ccc(-n2nc(C)c3c(C)cc(O)nc32)cc1
EC50 [10]: > 67.5 µM (inactive) | EC50 [11]: > 180 µM (inactive) | EC50 [12]: > 150 µM (inactive) | EC50 [13]: 1.54 µM (active) | IC50 [14]: > 67.5 µM (inactive) | EC50 [15]: > 150 µM (inactive)

Cn1cccc1CNCCc1ccccc1F
IC50 [1]: 8.12 µM (active) | EC50 (cells [2]): > 29.9 µM (inactive) | EC50 [3]: 1.74 µM (active) | IC50 (cells [4]): > 29.9 µM (inactive)

Cc1cc(NC(=O)c2ccc3c(c2)OCO3)ccc1NC(=O)c1ccccc1
IC50 [16]: > 122 µM (inactive) | IC50 [17]: > 122 µM (inactive)

CCn1cc(C(=O)NC2CCC(C)CC2)c(=O)c2cc(S(=O)(=O)N3CCCCC3)ccc21 (stereo unspecified)
Ki (fMet-Leu-Phe receptor): > 66.7 µM (inactive)

O=c1oc(-c2cc3ccccc3o2)nc2sc3c(c12)CCCC3
EC50 [10]: > 67.5 µM (inactive) | IC50 [14]: > 67.5 µM (inactive)

O=C(NN=C(S)Nc1cccc(Cl)c1)c1ccccc1OC(F)F
IC50 [18]: > 122 µM (inactive)
